Assay [1] concerns RSV-A2-GFP virus. Nature of the assay: microbe, parasite or virus in culture. Type of assay: cell-based, Human Respiratory Syncytial Virus. Put shortly: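 IC50 (GFP-expressing cell counts by Acumen imaging) and CC50 (same-well CellTiter-Glo) were obtained by 4-parameter logistic fitting. Compounds were tested in 10-point 3-fold series for 96 h at 37° C, 5% CO2. Thawed Calu-1 ARF cells were infected at MOI 1.2 with GFP-reporter RSV-A2 in 2% FBS DMEM.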

Assay [2] relates to hMPV-GFP virus. Briefly: microbe, parasite or virus in culture. It is filed as cell-based, human metapneumovirus. Summed up:
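Antiviral IC50 was derived from imaging counts of GFP-expressing cells, with CC50 from a same-well CellTiter-Glo read, both by 4-parameter logistic fitting. VERO cells plus hMPV-GFP (MOI 1.25) were exposed 48 h at 37 °C to 10-point 3-fold compound dilutions (typical final 40,300–2 nM).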

[3] abbreviates: human respiratory syncytial virus, Calu-1, 96 h, read-out: RSV EC50, Calu-1 cells infected with RSV-A2-GFP, 96 hrs, GFP-expressing cells counted.
Where [4] appears, read: human metapneumovirus, Vero, 48 h, read-out: hMPV EC50, VERO cells infected with hMPV-GFP, 48 hrs, GFP-expressing cells counted.
[5] abbreviates: Calu-1 cells infected with RSV-A2-GFP, 96 hrs, GFP-expressing cells counted, read-out: RSV EC50.
The mark [6] stands for this setting: VERO cells infected with hMPV-GFP, 48 hrs, GFP-expressing cells counted, read-out: hMPV EC50.

Results on 19 molecules are retold here after patent US12643882B2, “Inhibitors of human respiratory syncytial virus and metapneumovirus” (priority 2022, dated 2026).

Like-named read-outs stand apart in the source and are kept apart here. Bounds are passed on as bounds.

Regarding `Cc1nn(-c2ncccn2)cc1C(=O)N1C[C@@H]2[C@H](C1)[C@H]2Oc1cc(C(C)(C)N)cc(-n2ncc3c(Cl)cccc32)n1` [Example 94, ((1R,5S,6s)-6-((4-(2-aminopropan-2-yl)-6-(4-chloro-1H-indazol-1-yl)pyridin-2-yl)oxy)-3-azabicyclo[3.1.0]hexan-3-yl)(3-methyl-1-(pyrimidin-2-yl)-1H-pyrazol-4-yl)methanone], the EC50 (in general, the concentration that produces a half-maximal response) in assay [1] (setting [3]) is < 10 nM; in assay [2] (setting [4]), > 100 nM.

`CC(C)(N)c1cc(O[C@H]2[C@@H]3CN(C(=O)c4cn(-c5ncccn5)nc4CO)C[C@@H]32)nc(-c2ccc(F)c(F)c2)c1` [Example 95, ((1R,5S,6s)-6-((4-(2-aminopropan-2-yl)-6-(3,4-difluorophenyl)pyridin-2-yl)oxy)-3-azabicyclo[3.1.0]hexan-3-yl)(3-(hydroxymethyl)-1-(pyrimidin-2-yl)-1H-pyrazol-4-yl)methanone]: the EC50 was < 10 nM in assay [1] (setting [3]) and > 100 nM in assay [2] (setting [4]).

Consider `Cc1nc(-c2ncccn2)sc1C(=O)N1C[C@@H]2[C@H](C1)[C@H]2Oc1cc(C(C)(C)N)cc(-c2ccc(F)cc2F)n1` [Example 97, ((1R,5S,6s)-6-((4-(2-aminopropan-2-yl)-6-(2,4-difluorophenyl)pyridin-2-yl)oxy)-3-azabicyclo[3.1.0]hexan-3-yl)(4-methyl-2-(pyrimidin-2-yl)thiazol-5-yl)methanone], for which the EC50 in assay [1] (setting [3]) is < 10 nM; in assay [2] (setting [4]), 10 to 100 nM.

On to `Cn1nc(-c2ncccn2)cc1C(=O)N1C[C@@H]2[C@H](C1)[C@H]2Oc1cc(C(C)(C)N)cc(-c2ccc3c(c2)CC3(F)F)n1` [Example 98, ((1R,5S,6s)-6-((4-(2-aminopropan-2-yl)-6-(7,7-difluorobicyclo[4.2.0]octa-1(6),2,4-trien-3-yl)pyridin-2-yl)oxy)-3-azabicyclo[3.1.0]hexan-3-yl)(1-methyl-3-(pyrimidin-2-yl)-1H-pyrazol-5-yl)methanone], for which the EC50 in assay [1] (setting [5]) is < 10 nM; in assay [2] (setting [6]), > 100 nM.

Take `Cc1nn(-c2ncccn2)cc1C(=O)N1C[C@@H]2[C@H](C1)[C@H]2Oc1cc(C(C)(C)N)cc(-c2ccc3c(c2)CC3(F)F)n1` [Example 99, ((1R,5S,6s)-6-((4-(2-aminopropan-2-yl)-6-(7,7-difluorobicyclo[4.2.0]octa-1(6),2,4-trien-3-yl)pyridin-2-yl)oxy)-3-azabicyclo[3.1.0]hexan-3-yl)(3-methyl-1-(pyrimidin-2-yl)-1H-pyrazol-4-yl)methanone]: the results for the EC50 in assay [1] (setting [5]) and in assay [2] (setting [6]) were < 10 nM and > 100 nM, respectively.

As to `Cc1nn(-c2ncccn2)cc1C(=O)N1C[C@@H]2[C@H](C1)[C@H]2Oc1cc(C(C)(C)N)cc(N2CCC(C)(C)CC2)n1` [Example 100, ((1R,5S,6s)-6-((4-(2-aminopropan-2-yl)-6-(4,4-dimethylpiperidin-1-yl)pyridin-2-yl)oxy)-3-azabicyclo[3.1.0]hexan-3-yl)(3-methyl-1-(pyrimidin-2-yl)-1H-pyrazol-4-yl)methanone], the figures for the EC50 in assay [1] (setting [5]) and in assay [2] (setting [6]) were < 10 nM and > 100 nM, respectively.

`CC1(C)CCN(c2cc(C(C)(C)N)cc(O[C@H]3[C@@H]4CN(C(=O)c5cn(-c6ncccn6)nc5C(F)F)C[C@@H]43)n2)CC1` [Example 101, ((1R,5S,6s)-6-((4-(2-aminopropan-2-yl)-6-(4,4-dimethylpiperidin-1-yl)pyridin-2-yl)oxy)-3-azabicyclo[3.1.0]hexan-3-yl)(3-(difluoromethyl)-1-(pyrimidin-2-yl)-1H-pyrazol-4-yl)methanone]: the EC50 was < 10 nM in assay [1] (setting [5]) and > 100 nM in assay [2] (setting [6]).

Regarding `Cc1nn(-c2ncccn2)cc1C(=O)N1C[C@@H]2[C@H](C1)[C@H]2Oc1cc(C(C)(C)N)cc(N2CCC(C(F)(F)F)CC2)n1` [Example 102, ((1R,5S,6s)-6-((4-(2-aminopropan-2-yl)-6-(4-(trifluoromethyl)piperidin-1-yl)pyridin-2-yl)oxy)-3-azabicyclo[3.1.0]hexan-3-yl)(3-methyl-1-(pyrimidin-2-yl)-1H-pyrazol-4-yl)methanone], the EC50 in assay [1] (setting [5]) is < 10 nM; in assay [2] (setting [6]) it was > 100 nM.

For the molecule `Cc1nc(-c2ncccn2)sc1C(=O)N1C[C@@H]2[C@H](C1)[C@H]2Oc1cc(-c2ccc(F)cc2)nc(C(C)(C)N)c1` [Example 114, ((1R,5S,6s)-6-((2-(2-aminopropan-2-yl)-6-(4-fluorophenyl)pyridin-4-yl)oxy)-3-azabicyclo[3.1.0]hexan-3-yl)(4-methyl-2-(pyrimidin-2-yl)thiazol-5-yl)methanone], the values for the half-maximal effective concentration (EC50) in assay [1] (setting [3]) and in assay [2] (setting [4]) were < 10 nM and > 100 nM, respectively.

For the molecule `Cc1nc(-c2ncccn2)sc1C(=O)N1C[C@@H]2[C@H](C1)[C@H]2Oc1cc(-c2ccc(F)cc2)cc(C(C)(C)N)n1` [Example 115, ((1R,5S,6s)-6-((6-(2-aminopropan-2-yl)-4-(4-fluorophenyl)pyridin-2-yl)oxy)-3-azabicyclo[3.1.0]hexan-3-yl)(4-methyl-2-(pyrimidin-2-yl)thiazol-5-yl)methanone], the EC50 in assay [1] (setting [3]) was < 10 nM; in assay [2] (setting [4]), > 100 nM.

As for `CCC(N)c1cc(O[C@H]2[C@@H]3CN(C(=O)c4cn(-c5ncccn5)nc4C)C[C@@H]32)nc(-c2ccc(F)cc2)c1` (stereo partly drawn) [Example 117A, ent-((1R,5S,6s)-6-((4-(1-aminopropyl)-6-(4-fluorophenyl)pyridin-2-yl)oxy)-3-azabicyclo[3.1.0]hexan-3-yl)(3-methyl-1-(pyrimidin-2-yl)-1H-pyrazol-4-yl)methanone], the EC50 in assay [1] (setting [5]) was < 10 nM; in assay [2] (setting [6]) it was > 100 nM.

In the case of `Cc1nn(-c2ncccn2)cc1C(=O)N1C[C@@H]2[C@H](C1)[C@H]2Oc1cc(C(N)C(C)C)cc(-c2ccc(F)cc2)n1` (stereo partly drawn) [Example 118A, ent-((1R,5S,6s)-6-((4-(1-amino-2-methylpropyl)-6-(4-fluorophenyl)pyridin-2-yl)oxy)-3-azabicyclo[3.1.0]hexan-3-yl)(3-methyl-1-(pyrimidin-2-yl)-1H-pyrazol-4-yl)methanone], the figures for the EC50 in assay [1] (setting [5]) and in assay [2] (setting [6]) were < 10 nM and > 100 nM, respectively.

For the molecule `Cc1nn(-c2ncccn2)cc1C(=O)N1C[C@@H]2[C@H](C1)[C@H]2Oc1cc(C(C)(C)N)c(F)c(-c2ccc(F)cc2)n1` [Example 119, ((1R,5S,6s)-6-((4-(2-aminopropan-2-yl)-5-fluoro-6-(4-fluorophenyl)pyridin-2-yl)oxy)-3-azabicyclo[3.1.0]hexan-3-yl)(3-methyl-1-(pyrimidin-2-yl)-1H-pyrazol-4-yl)methanone], the EC50 in assay [1] (setting [3]) was < 10 nM; in assay [2] (setting [4]), > 100 nM.

`Cc1nn(-c2ncccn2)cc1C(=O)N1C[C@@H]2[C@H](C1)[C@H]2Oc1cc(C(C)(C)N)c(Cl)c(-c2ccc(F)cc2)n1` [Example 120, ((1R,5S,6s)-6-((4-(2-aminopropan-2-yl)-5-chloro-6-(4-fluorophenyl)pyridin-2-yl)oxy)-3-azabicyclo[3.1.0]hexan-3-yl)(3-methyl-1-(pyrimidin-2-yl)-1H-pyrazol-4-yl)methanone]: the values for the EC50 in assay [1] (setting [3]) and in assay [2] (setting [4]) were < 10 nM and > 100 nM, respectively.

For `COc1nn(-c2ncccn2)cc1C(=O)N1C[C@@H]2[C@H](C1)[C@H]2Oc1cc(C(C)(C)N)c(Cl)c(-c2ccc(F)cc2)n1` [Example 121, ((1R,5S,6s)-6-((4-(2-aminopropan-2-yl)-5-chloro-6-(4-fluorophenyl)pyridin-2-yl)oxy)-3-azabicyclo[3.1.0]hexan-3-yl)(3-methoxy-1-(pyrimidin-2-yl)-1H-pyrazol-4-yl)methanone], the EC50 in assay [1] (setting [5]) was < 10 nM; in assay [2] (setting [6]), > 100 nM.

With `COc1nn(-c2ncccn2)cc1C(=O)N1C[C@@H]2[C@H](C1)[C@H]2Oc1cc(C(C)(C)N)cc(N2CCC(C)(C)CC2)n1` [Example 122, ((1R,5S,6s)-6-((4-(2-aminopropan-2-yl)-6-(4,4-dimethylpiperidin-1-yl)pyridin-2-yl)oxy)-3-azabicyclo[3.1.0]hexan-3-yl)(3-methoxy-1-(pyrimidin-2-yl)-1H-pyrazol-4-yl)methanone], the results for the EC50 in assay [1] (setting [3]) and in assay [2] (setting [4]) were < 10 nM and > 100 nM, respectively.

Turning to `Cc1nc(-c2ncccn2)sc1C(=O)N1C[C@@H]2[C@H](C1)[C@H]2Oc1cc(C(C)(C)N)cc(N2CCC(C)(C)CC2)n1` [Example 123, ((1R,5S,6s)-6-((4-(2-aminopropan-2-yl)-6-(4,4-dimethylpiperidin-1-yl)pyridin-2-yl)oxy)-3-azabicyclo[3.1.0]hexan-3-yl)(4-methyl-2-(pyrimidin-2-yl)thiazol-5-yl)methanone], the EC50 in assay [1] (setting [5]) is < 10 nM; in assay [2] (setting [6]), > 100 nM.

Take `CCc1nn(-c2ncccn2)cc1C(=O)N1C[C@@H]2[C@H](C1)[C@H]2Oc1cc(C(C)(C)N)cc(N2CCC(C)(C)CC2)n1` [Example 124, ((1R,5S,6s)-6-((4-(2-aminopropan-2-yl)-6-(4,4-dimethylpiperidin-1-yl)pyridin-2-yl)oxy)-3-azabicyclo[3.1.0]hexan-3-yl)(3-ethyl-1-(pyrimidin-2-yl)-1H-pyrazol-4-yl)methanone]: the 50% effective concentration (EC50) in assay [1] (setting [5]) is < 10 nM; in assay [2] (setting [6]), > 100 nM.

Take `Cc1nc(-c2ncccn2)sc1C(=O)N1C[C@@H]2[C@H](C1)[C@H]2Oc1cc(C(C)(C)N)cc(N2CCC(C(F)(F)F)CC2)n1` [Example 125, ((1R,5S,6s)-6-((4-(2-aminopropan-2-yl)-6-(4-(trifluoromethyl)piperidin-1-yl)pyridin-2-yl)oxy)-3-azabicyclo[3.1.0]hexan-3-yl)(4-methyl-2-(pyrimidin-2-yl)thiazol-5-yl)methanone]: the EC50 in assay [1] (setting [5]) is < 10 nM; in assay [2] (setting [6]) it was > 100 nM.
